Measurements published in ChEMBL document CHEMBL6087386, “Radioprotective effectiveness of a novel delta-tocotrienol prodrug on mouse hematopoietic system against 60Co gamma-ray irradiation through inducing granulocyte-colony stimulating factor production” (Eur J Med Chem, 2024).
Activity calls are given as the source filed them. The rule behind the calls is not given here.

Tests used:
Mus musculus [1] = assay: Induction of G-CSF production in C57BL/6J mouse model at 100 mg/kg, sc measured for 24 hrs by ELISA analysis; assay type: functional, organism-based
Mus musculus [2] = assay: Radioprotective activity in C57BL/6J mouse assessed as survival rate at 100 mg/kg, sc preincubated with compound for 24 hrs followed by total body irradiation with 8.5 Gy and measured after 20 days by Kaplan-meier plot analysis; assay type: functional; conditions: light or radiation study, 504 h, time 21 day
Mus musculus [3] = assay: Radioprotective activity in C57BL/6J mouse assessed as survival rate at 100 mg/kg, sc preincubated with compound for 24 hrs followed by total body irradiation with 8.5 Gy and measured after 30 days by Kaplan-meier plot analysis; assay type: functional; conditions: Mus musculus, C57BL/6J, light or radiation study, 744 h, time 31 day
Mus musculus [4] = assay: Radioprotective activity in C57BL/6J mouse assessed as […] in survival rate at 100 mg/kg, sc preincubated with compound for 24 hrs followed by total body irradiation with 9.5 Gy and measured after 30 days by Kaplan-meier plot analysis; assay type: functional, organism-based; conditions: time 31.0 day
Mus musculus [5] = assay: Radioprotective activity in C57BL/6J mouse assessed as survival rate at 100 mg/kg, sc preincubated with compound for 24 hrs followed by total body irradiation with 9.5 Gy and measured after 30 days by Kaplan-meier plot analysis; assay type: functional; conditions: light or radiation study, 744 h, time 31 day
[6] = Stability in C57BL/6J mouse whole blood assessed as half-life; assay type: ADME, tissue-based
[7] = Stability in C57BL/6J mouse plasma assessed as half-life; assay type: ADME, cell-free
[8] = Stability in […] human plasma assessed as half-life; assay type: ADME, cell-free
[9] = Tmax in ICR mouse at 100 mg/kg, iv measured upto 24 hrs by LC-MS/MS analysis; assay type: ADME, organism-based; conditions: in vivo
[10] = Tmax in ICR mouse at 100 mg/kg, sc measured upto 24 hrs by LC-MS/MS analysis; assay type: ADME, organism-based; conditions: in vivo
[11] = Cmax in ICR mouse at 100 mg/kg, iv measured upto 24 hrs by LC-MS/MS analysis; assay type: ADME, organism-based; conditions: in vivo
[12] = Cmax in ICR mouse at 100 mg/kg, sc measured upto 24 hrs by LC-MS/MS analysis; assay type: ADME, organism-based; conditions: in vivo
[13] = Half life in ICR mouse at 100 mg/kg, iv measured upto 24 hrs by LC-MS/MS analysis; assay type: ADME, organism-based; conditions: in vivo
[14] = Clearance in ICR mouse at 100 mg/kg, iv measured upto 24 hrs by LC-MS/MS analysis; assay type: ADME, organism-based; conditions: in vivo
[15] = MRT (0 to t) in ICR mouse at 100 mg/kg, iv measured upto 24 hrs by LC-MS/MS analysis; assay type: ADME, organism-based; conditions: in vivo
[16] = MRT (0 to t) in ICR mouse at 100 mg/kg, sc measured upto 24 hrs by LC-MS/MS analysis; assay type: ADME, organism-based; conditions: in vivo
[17] = MRT (0 to infinity) in ICR mouse at 100 mg/kg, iv measured upto 24 hrs by LC-MS/MS analysis; assay type: ADME, organism-based; conditions: in vivo, iv, 100 mg/kg, 24 h
[18] = Volume of distribution at steady state in ICR mouse at 100 mg/kg, iv measured upto 24 hrs by LC-MS/MS analysis; assay type: ADME, organism-based; conditions: in vivo, iv, 100 mg/kg, 24 h
[19] = Bioavailability in ICR mouse at 100 mg/kg, sc measured upto 24 hrs by LC-MS/MS analysis; assay type: ADME, organism-based; conditions: in vivo
[20] = Drug concentration in C57BL/6J mouse plasma at 100 mg/kg, sc measured after 24 hrs; assay type: ADME, organism-based; conditions: in vivo
Mus musculus [21] = assay: Radioprotective activity in C57BL/6J mouse assessed as increase in G-CSF production in serum at 100 mg/kg, sc; assay type: functional, organism-based; conditions: time 24.0 hrs
Mus musculus [22] = assay: Radioprotective activity in C57BL/6J mouse assessed as increase in G-CSF production in serum at 100 mg/kg, sc measured for 72 hrs; assay type: functional, organism-based
Mus musculus [23] = assay: Radioprotective activity in C57BL/6J mouse assessed as increase in G-CSF production in serum at 100 mg/kg, sc measured for 6 to 24 hrs; assay type: functional, organism-based; conditions: time 6-24 hrs
Mus musculus [24] = assay: Radioprotective activity in C57BL/6J mouse assessed as increase in WBC count at 100 mg/kg, sc preincubated with compound for 24 hrs followed by total body irradiation with 6.5 Gy and measured after 30 days; assay type: functional, organism-based; conditions: time 31.0 day
Mus musculus [25] = assay: Radioprotective activity in C57BL/6J mouse assessed as increase in neutrophils at 100 mg/kg, sc preincubated with compound for 24 hrs followed by total body irradiation with 6.5 Gy and measured after 30 days; assay type: functional, organism-based; conditions: time 31.0 day
Mus musculus [26] = assay: Radioprotective activity in C57BL/6J mouse assessed as increase in platelets count at 100 mg/kg, sc preincubated with compound for 24 hrs followed by total body irradiation with 6.5 Gy and measured after 30 days; assay type: functional, organism-based; conditions: time 31.0 day
Mus musculus [27] = assay: Radioprotective activity in C57BL/6J mouse assessed as increase in RBC count at 100 mg/kg, sc preincubated with compound for 24 hrs followed by total body irradiation with 6.5 Gy and measured after 30 days; assay type: functional, organism-based; conditions: time 31.0 day
Mus musculus [28] = assay: Radioprotective activity in C57BL/6J mouse assessed as increase in neutrophils at 100 mg/kg, sc preincubated with compound for 24 hrs followed by total body irradiation with 6.5 Gy and measured on day 7; assay type: functional, organism-based; conditions: time 8.0 day
Mus musculus [29] = assay: Radioprotective activity in C57BL/6J mouse assessed as increase in platelet count at 100 mg/kg, sc preincubated with compound for 24 hrs followed by total body irradiation with 6.5 Gy and measured on day 10; assay type: functional, organism-based; conditions: time 11.0 day
Mus musculus [30] = assay: Radioprotective activity in C57BL/6J mouse assessed as increase in RBC count at 100 mg/kg, sc preincubated with compound for 24 hrs followed by total body irradiation with 6.5 Gy and measured on day 14; assay type: functional, organism-based; conditions: time 15.0 day
Mus musculus [31] = assay: Radioprotective activity in C57BL/6J mouse assessed as increase in number of total bone marrow cells at 100 mg/kg, sc preincubated with compound for 24 hrs followed by total body irradiation with 6.5 Gy and measured after 30 days; assay type: functional, organism-based; conditions: time 31.0 day
Mus musculus [32] = assay: Radioprotective activity in C57BL/6J mouse assessed as increase in percentage of LK cells at 100 mg/kg, sc preincubated with compound for 24 hrs followed by total body irradiation with 6.5 Gy and measured after 30 days; assay type: functional, organism-based; conditions: time 31.0 day
Mus musculus [33] = assay: Radioprotective activity in C57BL/6J mouse assessed as increase in percentage of LSK cells at 100 mg/kg, sc preincubated with compound for 24 hrs followed by total body irradiation with 6.5 Gy and measured after 30 days; assay type: functional, organism-based; conditions: time 31.0 day
Mus musculus [34] = assay: Radioprotective activity in C57BL/6J mouse assessed as increase in long term hematopoietic stem cell frequency in LSK compartment at 100 mg/kg, sc preincubated with compound for 24 hrs followed by total body irradiation with 6.5 Gy and measured after 30 days; assay type: functional, organism-based; conditions: time 31.0 day
Mus musculus [35] = assay: Radioprotective activity in C57BL/6J mouse assessed as increase in multipotent progenitor frequency in LSK compartment at 100 mg/kg, sc preincubated with compound for 24 hrs followed by total body irradiation with 6.5 Gy and measured after 30 days; assay type: functional, organism-based; conditions: time 31.0 day
Mus musculus [36] = assay: Radioprotective activity in C57BL/6J mouse assessed as effect on LT-HSC number at 100 mg/kg, sc preincubated with compound for 24 hrs followed by total body irradiation with 6.5 Gy and measured after 30 days; assay type: functional, organism-based; conditions: time 31.0 day
Mus musculus [37] = assay: Radioprotective activity in C57BL/6J mouse assessed as increase in ST-HSC number at 100 mg/kg, sc preincubated with compound for 24 hrs followed by total body irradiation with 6.5 Gy and measured after 30 days; assay type: functional, organism-based; conditions: time 31.0 day
Mus musculus [38] = assay: Radioprotective activity in C57BL/6J mouse assessed as increase in MPP number at 100 mg/kg, sc preincubated with compound for 24 hrs followed by total body irradiation with 6.5 Gy and measured after 30 days; assay type: functional, organism-based; conditions: time 31.0 day
Mus musculus [39] = assay: Radioprotective activity in C57BL/6J mouse assessed as splenomegaly at 100 mg/kg, sc preincubated with compound for 24 hrs followed by total body irradiation with 6.5 Gy and measured after 10 days; assay type: functional, organism-based; conditions: time 11.0 day
Mus musculus [40] = assay: Radioprotective activity in C57BL/6J mouse assessed as increase in spleen coefficient at 100 mg/kg, sc preincubated with compound for 24 hrs followed by total body irradiation with 6.5 Gy and measured after 10 days; assay type: functional, organism-based; conditions: time 11.0 day
Mus musculus [41] = assay: Radioprotective activity in C57BL/6J mouse assessed as fold increase in total number of splenic nucleated cells at 100 mg/kg, sc preincubated with compound for 24 hrs followed by total body irradiation with 6.5 Gy and measured after 10 days; assay type: functional; conditions: time 11 day
Mus musculus [42] = assay: Radioprotective activity in C57BL/6J mouse assessed as effect on splenic LT-HSCs number at 100 mg/kg, sc preincubated with compound for 24 hrs followed by total body irradiation with 6.5 Gy and measured after 10 days; assay type: functional, organism-based; conditions: time 11.0 day

SMILES: CC(C)=CCC/C(C)=C/CC/C(C)=C/CC[C@]1(C)CCc2cc(OC(=O)CCC(=O)O)cc(C)c2O1
- Activity (Mus musculus [1]): Active
- survival at 100 mg/kg (Mus musculus [2]): 70%
- survival at 100 mg/kg (Mus musculus [3]): 90%
- Activity (Mus musculus [4]): inactive
- survival at 100 mg/kg (Mus musculus [5]): 90%
- half-life [6]: 9.3 min
- half-life [7]: 3.73 h
- half-life [8]: 1.92 h
- Tmax [9]: 4.98 min
- Tmax [10]: 4.98 min
- Cmax [11]: 5.15 ng/mL
- Cmax [12]: 2.02 ng/mL
- half-life [13]: 10.4 h
- CL [14]: 3.7553 mL/min/kg
- MRT last at 24 h [15]: 1.36 h
- MRT last at 24 h [16]: 11.9 h
- MRT [17]: 3.47 h
- Vdss [18]: 0.33658 L/kg
- F [19]: 13.86%
- Drug uptake [20]: Active
- Activity (Mus musculus [21]): Time-dependent-effect
- Activity (Mus musculus [22]): Active
- Activity (Mus musculus [23]): Active
- Activity (Mus musculus [24]): Active
- Activity (Mus musculus [25]): Active
- Activity (Mus musculus [26]): Active
- Activity (Mus musculus [27]): Active
- Activity (Mus musculus [28]): Active
- Activity (Mus musculus [29]): Active
- Activity (Mus musculus [30]): Active
- Activity (Mus musculus [31]): Active
- Activity (Mus musculus [32]): Active
- Activity (Mus musculus [33]): Active
- Activity (Mus musculus [34]): Active
- Activity (Mus musculus [35]): Active
- Activity (Mus musculus [36]): inactive
- Activity (Mus musculus [37]): Active
- Activity (Mus musculus [38]): Active
- Activity (Mus musculus [39]): Active
- Activity (Mus musculus [40]): Active
- fold change (FC) (Mus musculus [41]): ~2.5
- Activity (Mus musculus [42]): Active
